Experimental findings from a melting point compilation (Tetko et al.; mined from patent text by program, amines drawn as free bases though some values may be those of a salt) are described below.

Broadly, the melting point is the temperature, or range, at which the solid turns liquid.

Regarding `COc1cc(C)cc(OC)c1NC(=O)CNC(=O)OC(C)(C)C`, the melting point was determined as 146 °C. The figure for `CC(C)n1c2c(c(-c3ccccc3)nc1=O)CCCCCCCCCC2` is 173 to 176 °C; for `O=C(O)c1cc2cnc3ccccc3n2c1` it is 242 to 247 °C. With `COCc1nnc2ccc(-c3cccc(C(F)(F)F)c3)nn12` the figure was 149 to 150 °C. With `CN(C)CCOc1ccc(C(=O)c2c(-c3ccc(O)cc3)sc3cc(O)ccc23)cc1` the figure was 141 to 144 °C; with `O=C(NC(Cc1ccc(OCc2ccccc2)cc1)C(=O)O)c1cn2c(-c3ccc(Cl)cc3)cccc2n1` (stereo unspecified), 218 °C; with `CC(=O)C(C#N)=Cc1ccccc1`, 83 to 84 °C. The compound `CC(=O)Oc1cc2c(c3ccccc13)Nc1ccc(C)cc1S2` had a melting point of 193 to 195 °C. As for `Cc1cc(SC#N)c(C(C)(C)C)cc1O`, the melting point was 99 to 102 °C. `O=C(O)Cc1cc(C(=O)c2cccc(F)c2)ccc1O` registered a melting point of 171 °C. With `CCC(C)C(=O)Nc1c(C(O)(C(F)(F)F)C(F)(F)F)ccc2ccccc12` (stereo unspecified) the figure was 167 to 168 °C. With `Ic1cccc2c1CCOC2` the figure was 54 to 56 °C; with `CC1(C)OC(=O)Nc2c(Br)cc(-c3ccc(F)c(C#N)c3)cc21`, 235 to 236 °C. The figure for `CCNc1nc(NCCN2CCCC2)nc(Nc2ccc(OC)cc2)n1` is 29 to 31 °C. Take `CC(C)(C)OC(=O)N[C@@H](Cc1ccc(-c2ccc(F)cc2)cc1)C(=O)OCc1ccccc1`: the melting point lay in the range of 103 to 104 °C. The figure for `Cn1c(=O)c2ccsc2n(CC2CC2)c1=O` is 75 to 77 °C; for `COc1ccc2c(n1)c(CCNC(C)=O)c1n2CCCO1` it is 92 to 93 °C; for `CC(C)n1cc(-c2nc(C(N)=O)c(N)nc2-c2ccc(Cl)cc2)ccc1=O` it is 246 °C. For the compound `CC(C)(Cc1c(Sc2ccccc2)c2cc(-c3ccccc3)ccc2n1Cc1ccc(Cl)cc1)C(=O)O`, the melting point was in the range of 182 to 183 °C. With `CCOC(=O)CC(NC(C)=O)C(=O)c1ccco1` (stereo unspecified) the figure was 82 to 84 °C; with `O=C(Oc1cccc2cnccc12)c1cc2ccccc2oc1=O`, 190 to 193 °C; with `C[C@@H](n1cnc2c(cnn2-c2ccc(Cl)cc2)c1=O)[C@](O)(Cn1cncn1)c1ccc(F)cc1F`, 237 to 238 °C.

`C=Cc1cc(S(=O)(=O)c2ccc(N)cc2)cc(N2CCCC2)n1` displayed a melting point of 181 to 182 °C. As to `Cc1cc(=O)[nH]c2c1C(=O)CC(c1ccccc1Cl)C2` (stereo unspecified), the melting point lay within 290 to 291 °C. The figure for `COc1ccc(-c2ccc(CCNC(=O)c3cc(Cl)ccc3OC)cc2S(N)(=O)=O)cc1` is 205 to 208 °C; for `CCCCNC(=O)N(C)c1ncc(-c2ccncc2)cn1` it is 97 to 99 °C.

`Nc1sccc1C(=O)c1ccccc1` showed a melting point of 150 to 152 °C. With `N#CC1CN1C(=O)CN1C(=O)c2ccccc2C1=O` (stereo unspecified) the figure was 126 to 128 °C; with `Cc1cc(C)c(C(=O)c2cc(C(C)(C)C)c(O)c(C(C)(C)C)c2)c(Cl)n1`, 109 to 110 °C.

With `NC(=O)c1c(F)ccc([N+](=O)[O-])c1F`, the melting point lay in the range of 134 to 135 °C. `Cc1nc2c(cc1C(=O)O)CCCC2` returned a melting point of 196 to 197 °C. The figure for `O=C(c1cccs1)c1cccc2cc[nH]c12` is 129 to 130 °C; for `COc1cc2c(cc1NCc1ccccc1)ncc1c(N)nc(-c3cccnc3)cc12` it is 251 to 258 °C.

For the compound `CC(C)(C)OC(=O)N1CCC(CO)(c2ccccc2)CC1`, the melting point is 64 °C. The figure for `CCCCOc1cc(OC)ccc1C(=O)c1cccc(C(=O)O)c1` is 112 to 115 °C.

As for `COC(=O)Cc1cc2c(cc1CC(=O)NCCc1ccc(OC)c(OC)c1)OCO2`, the melting point lay in the range of 122 to 125 °C. With `OC[C@H](O)CSc1ccccc1` the figure was 79 to 81 °C. The figure for `CCOC(=O)C(=C(c1ccc(F)cc1)c1ccc(F)cc1)n1nnnc1-c1ccccc1` is 149 to 150 °C; for `c1ccc(COc2c(-c3ccccc3)n[nH]c2-c2ccccc2)cc1` it is 152 °C. With `COC(=O)C(C)(C)OCc1nn(Cc2ccccc2)c2ccccc12` the figure was 66 to 67 °C; with `O=C(Oc1ccc(Oc2ccccc2)cc1)N1CCC(O)CC1`, 130 to 133 °C; with `OC(CN1CCN(C(c2ccccc2)c2ccccc2)CC1)c1ccc(OCc2ccccc2)cc1` (stereo unspecified), 129 °C. In turn, `Cn1nnnc1CC(c1ccccc1)c1ccccc1` yielded a melting point of 147 to 148 °C. The figure for `CC1Cc2c(occ(C=O)c2=O)-c2ccccc21` (stereo unspecified) is 146 to 148 °C. Regarding `C[C@H](N)C(=O)NC1N=C(c2ccccc2Cl)c2cc(Cl)ccc2N(C)C1=O` (stereo partly specified), the melting point is 232 to 233 °C. With `O=c1oc(=Cc2ccccc2)c(=Cc2ccccc2)o1` the figure was 115 °C; with `CCCc1c(OCCCOc2ccccc2C(=O)O)ccc(C(C)=O)c1O`, 105 to 108 °C; with `CNS(=O)(=O)c1ccc(-c2cc(N3CCOCC3)cc(Nc3ccc(OC(F)(F)F)cc3)n2)cc1`, 234 to 236 °C. The figure for `Nc1ccc(NC(=O)OCc2ccccc2)c(O)c1` is 148 °C; for `C#CCNC(=O)N1CC(Oc2ccc(Br)cc2)C1` it is 120 to 122 °C; for `COc1ccccc1[C@@H]1O[C@@H](CC(=O)O)C(=O)N(CC(C)(C)C)c2ccc(Cl)cc21` it is 179 to 183 °C. With `CC(c1cccc(-c2c[nH]nn2)c1)C(O)(Cn1cncn1)c1ccc(F)cc1F` (stereo unspecified) the figure was 168 to 170 °C; with `COc1ccc2c(c1)[C@@H]1c3ccccc3N[C@@H]1C2` (relative stereo), 129 to 130 °C. In turn, `CCOC(=O)CC(=O)C(C)(C)Sc1ccccc1` came in with a melting point of 44 to 45 °C. With `CCOC(=O)C1=C(C)NC(C)=C(C(=O)OCC)C1c1cc(Br)ccc1F` the figure was 118 to 119 °C; with `Cc1ccc(Cc2cnc(CCCOc3cc(CN4CCCCC4)ccn3)[nH]c2=O)cn1`, 99 to 100 °C. The figure for `COc1c(N2CCC(N)C(C)(C)C2)c(F)c(N)c2c(=O)c(C(=O)O)cn(C3CC3)c12` (stereo unspecified) is 205 °C. With `CN(C(=O)Cl)c1ccccc1C(F)(F)F` the figure was 44 to 46 °C; with `Cc1cc(C)c(CCCC(C)(C)O)c(O)c1`, 128 °C; with `O=C1c2cc(F)ccc2OCC1C(=O)C(F)(F)F` (stereo unspecified), 107 to 112 °C.

`CC=C1OCC2(CO1)COC(=CC)OC2` (stereo unspecified) showed a melting point of 30 °C. With `Cc1nc2ccsc2c2ccccc12` the figure was 74 to 76 °C.

The compound `CC(C)c1ccccc1-n1c(=O)[nH]c2c(C(N)=O)nc(-c3ccc(-n4ccnc4)cc3)nc21` gave a melting point of 232 °C. With `O=C(Nc1cccc2c(NN3C(=O)CCC3=O)ccnc12)c1c(Cl)cccc1Cl` the figure was 170 to 173 °C. `CCCCCCNc1nc(Cl)nc2c(SC)ncnc12` yielded a melting point of 80 to 82 °C. On to `O=C(Nc1ccc(N2CCOCC2)c(C(F)(F)F)c1)c1ccc(F)c(OCc2cncc3ccccc23)c1`, for which the melting point lay in the range of 175 to 180 °C.
